This passage reports IC50 results from ChEMBL document CHEMBL1159178, “The use of a proline ring as a conformational restraint in CCK-B receptor dipeptoids” (Bioorg Med Chem Lett, 1992).

SMILES strings stand for the structures.

The target of experiment [1] is T1, Gastrin/cholecystokinin type B receptor (Mus musculus, UniProt P56481).
T1 sequence (P56481 whole entry): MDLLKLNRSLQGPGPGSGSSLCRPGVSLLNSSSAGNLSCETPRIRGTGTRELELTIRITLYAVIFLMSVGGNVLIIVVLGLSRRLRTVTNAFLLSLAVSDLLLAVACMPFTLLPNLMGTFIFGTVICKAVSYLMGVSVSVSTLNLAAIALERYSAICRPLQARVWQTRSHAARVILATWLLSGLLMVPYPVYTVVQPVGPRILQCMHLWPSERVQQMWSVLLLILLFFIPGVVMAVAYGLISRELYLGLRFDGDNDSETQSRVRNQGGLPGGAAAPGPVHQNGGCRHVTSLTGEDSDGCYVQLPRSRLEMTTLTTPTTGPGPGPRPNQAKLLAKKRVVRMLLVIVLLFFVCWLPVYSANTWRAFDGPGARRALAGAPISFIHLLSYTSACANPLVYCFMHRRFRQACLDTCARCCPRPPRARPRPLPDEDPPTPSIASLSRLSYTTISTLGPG
Nature of the experiment: Evaluated for in vitro binding affinity towards cholecystokinin-B (CCK-B) receptor in mouse cerebral cortex using [125I]bolton hunter CCK-26-33 as radioligand; 1790-2700. In kind it is tissue-based.

Experiment [2] deals with T2, Cholecystokinin receptor type A (Rattus norvegicus, UniProt P30551).
T2 sequence (P30551 whole entry): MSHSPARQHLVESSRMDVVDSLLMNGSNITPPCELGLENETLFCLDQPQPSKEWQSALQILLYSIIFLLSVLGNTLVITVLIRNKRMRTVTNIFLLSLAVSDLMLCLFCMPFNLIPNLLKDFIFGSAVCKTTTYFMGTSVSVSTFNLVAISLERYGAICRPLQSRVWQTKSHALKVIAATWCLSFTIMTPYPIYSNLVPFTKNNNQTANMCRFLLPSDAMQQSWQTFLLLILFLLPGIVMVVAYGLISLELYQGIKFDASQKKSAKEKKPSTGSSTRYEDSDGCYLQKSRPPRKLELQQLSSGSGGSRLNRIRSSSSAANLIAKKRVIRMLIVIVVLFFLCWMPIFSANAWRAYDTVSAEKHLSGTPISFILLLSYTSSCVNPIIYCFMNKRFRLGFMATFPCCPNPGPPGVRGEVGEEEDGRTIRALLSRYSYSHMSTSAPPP
Put plainly: Evaluated for in vitro binding affinity to cholecystokinin-A (CCK-A) receptor in homogenized rat pancreas using [125I]bolton hunter CCK-26-33 as radioligand; 743-1710.

The target in experiment [3] is T2, Cholecystokinin receptor type A. Nature of the experiment: Evaluated for in vitro binding affinity to cholecystokinin-A (CCK-A) receptor in homogenized rat pancreas using [125I]bolton hunter CCK-26-33 as radioligand; 690-850.
Experiment [4] concerns the target T1, Gastrin/cholecystokinin type B receptor. Nature of the experiment: Evaluated for in vitro binding affinity towards cholecystokinin-B (CCK-B) receptor in mouse cerebral cortex using [125I]bolton hunter CCK-26-33 as radioligand; 4.2-8.9. In kind it is tissue-based.
The target is the same in experiment [5]. Put plainly: Evaluated for in vitro binding affinity towards cholecystokinin-B (CCK-B) receptor in mouse cerebral cortex using [125I]bolton hunter CCK-26-33 as radioligand; 365-1590. In kind it is tissue-based.
Experiment [6] deals with T2, Cholecystokinin receptor type A. Put plainly: Evaluated for in vitro binding affinity to cholecystokinin-A (CCK-A) receptor in homogenized rat pancreas using [125I]bolton hunter CCK-26-33 as radioligand; 770-2020.

For the molecule `O=C(OC1C2CC3CC(C2)CC1C3)N1CCCC1(Cc1c[nH]c2ccccc12)C(=O)NC(CO)Cc1ccccc1` (stereo unspecified), the concentration for half-maximal inhibition (IC50) in experiment [1] amounted to 2080 nM; in experiment [2], 1050 nM.
Turning to `O=C(NC(Cc1c[nH]c2ccccc12)C(=O)NC(CO)Cc1ccccc1)OC1C2CC3CC(C2)CC1C3` (stereo unspecified), the IC50 was determined as 780 nM in experiment [3] and 6.3 nM in experiment [4].
Take `CC(Cc1c[nH]c2ccccc12)(NC(=O)OC1C2CC3CC(C2)CC1C3)C(=O)NC(CO)Cc1ccccc1` (stereo unspecified): the half-maximal inhibitory concentration (IC50) in experiment [5] stood at 852 nM; in experiment [6], 1080 nM.
